For assay [1], the system named is E. coli CFT073. Description: Checkerboard microdilution assay (growth inhibition synergy). It counts as cell-based, Escherichia coli. The protocol: (§1) The checkerboard microdilution assay is used for evaluation of in vitro antimicrobial synergy between two compounds (i.e., antibiotic/PRMSE, antibiotic/pure phenolic compound, and pure phenolic compounds with each other). Two-fold serial dilutions are prepared in MHB-II for each of the two compounds under study. The serial dilutions are then loaded into 96 well plates to achieve combinations having different concentrations of each of the two compounds. Each well is subsequently inoculated with 10^6 CFU mL^−1 of the desired bacterial strain and incubated at 37° C. for 18 h under static conditions. The Fractional Inhibitory Concentration Index (FICI) for each combination is calculated by using the following formula: FICcomponent 1=MICcomponent 1, in combination/MICcomponent 1,alone FICI=FICcomponent 1+FICcomponent 2
(§2) The FICIs are interpreted as follows: FICI of […] (synergy); 0.5<FICI ≤1 (no interaction/indifference); FICI of >4 (antagonism).

Assay [2] has as its system P. aeruginosa PA14. The description is as above. It counts as cell-based, Pseudomonas aeruginosa. The protocol:
as §1, §2

In assay [3] the test system is P. aeruginosa PAO1. The description is as above. The class given is cell-based, Pseudomonas aeruginosa. The protocol: as §1, §2
Assay [4] has as its system P. mirabilis HI4320. Description: Determination of minimum inhibitory concentration (MIC). It counts as cell-based. As to conditions: Proteus mirabilis, HI4320, 18 h. Here is the method: (§3) A range of concentration of antibiotics, ciprofloxacin (0.0003-0.25 μg mL^−1) and carbenicillin (0.5-512 μg mL^−1), are chosen due to their known potency against all four bacterial strains. Dilutions are prepared in flat bottom, 96 well microtitre plates (Falcon™, Corning™, Fisher Scientific, ON, Canada). Each well of a microtitre plate is then inoculated with the desired bacterial strain (grown in MHB-II and diluted to […]) and the plate is incubated at 37° C. for 18 h under static conditions. Bacterial growth is assessed by (i) monitoring the optical density of the cell suspension in each well at 600 nm (OD600 nm), and (ii) the resazurin microtitre plate assay. In the resazurin microtitre plate assay, each well of a microtitre plate is supplemented with 20 μM resazurin, incubated in the dark for 20 min at room temperature, followed by fluorescence measurements at ex/em 570/590 nm using a TECAN Infinite M200 Pro microplate reader (Tecan Group Ltd., Switzerland). The lowest concentration of a compound able to prevent increase in OD600 nm and resazurin fluorescence intensity is recorded as the MIC for that compound.

Assay [5] deals with P. aeruginosa PA14. Described as above. The class given is cell-based. To be noted: Pseudomonas aeruginosa, PA14, 18 h. The protocol:
as §3

Assay [6] relates to P. aeruginosa PAO1. Described as above. It counts as cell-based. As to conditions: Pseudomonas aeruginosa, PAO1, 18 h. Here is the method: as §3
Assay [7] deals with E. coli CFT073. The description is as above. It counts as cell-based. As to conditions: Escherichia coli, CFT073, 18 h. Here is the method: as §3
Assay [8] has as its system P. mirabilis HI4320. As to the kind of experiment: Checkerboard microdilution assay (growth inhibition synergy). The class given is cell-based, Proteus mirabilis. The protocol:
as §1, §2
A general note: In broth dilution the organism is exposed to a series of concentrations in liquid medium.

The test system of assay [9] is E. coli CFT073, P. mirabilis HI4320, P. aeruginosa PAO1 and PA14. Description: Checkerboard microdilution assay, summary over the four strains. The class given is cell-based. As to conditions: labelled constituent + gallic acid; range over the four strains. The protocol: as §1, §2
Assay [10] relates to outer membrane of P. mirabilis HI4320. Description: Outer membrane permeabilization, NPN uptake assay. It counts as cell-based, Proteus mirabilis. As to conditions: positive control gentamicin, above and below MICs. Here is the method: (§4) The cells are harvested, washed with 5 mM HEPES buffer (pH 7.2), and resuspended in the same volume (10 mL) of 5 mM HEPES buffer (pH 7.2) containing 1 mM N-ethylmaleimide (NEM, Sigma-Aldrich Canada). Aliquots (1 mL) are mixed with NPN to a final concentration of 10 μM (in cell suspension) and fluorescence is measured using the microplate reader (ex/em 350/420 nm).

Assay [11] has as its system outer membrane of P. aeruginosa PA14. As to the kind of experiment: Outer membrane permeabilization, NPN uptake assay. To be noted: positive control gentamicin, above and below MICs. It counts as cell-based, Pseudomonas aeruginosa. The protocol:
as §4

The test system of assay [12] is outer membrane of P. aeruginosa PAO1. Description: Outer membrane permeabilization, NPN uptake assay. As to conditions: positive control gentamicin, above and below MICs. The class given is cell-based, Pseudomonas aeruginosa. Here is the method: as §4
In assay [13] the test system is outer membrane of E. coli CFT073. Description: Outer membrane permeabilization, NPN uptake assay. As to conditions: positive control gentamicin, above and below MICs. The class given is cell-based, Escherichia coli. Here is the method: as §4
[14] abbreviates: ciprofloxacin in combination with the labelled phenolic constituent.
[15] abbreviates: labelled constituent + catechaldehyde, * = synergistic.
[16] abbreviates: labelled constituent + catechol, * = synergistic.
[17] abbreviates: labelled constituent + gallic acid, * = synergistic.
Where [18] appears, read: labelled constituent combined with catechaldehyde.
Setting [19] is: labelled constituent combined with catechol.
Where [20] appears, read: labelled constituent combined with gallic acid.
Where [21] appears, read: labelled phenolic constituent + ciprofloxacin, * = synergistic interaction.
Setting [22] is: labelled phenolic constituent in combination with ciprofloxacin.

≈ marks a conversion by molar mass, not a printed value.

Usually MIC stands for the least concentration at which growth counts as inhibited. A high value points to a need for much substance. `COc1cc(C=O)cc(OC)c1O` [syringaldehyde]: the FIC of ciprofloxacin in the assay with E. coli CFT073 [1] (setting [14]) is recorded as 0.5; in the assay with P. aeruginosa PA14 [2] (setting [14]) it was 0.5; with P. aeruginosa PAO1 [3] (setting [14]), 1; with P. mirabilis HI4320 [8] (setting [14]) it was 0.5. Also, the “FICI, catechaldehyde” value in the assay with E. coli CFT073 [1] (setting [15]) is reported as 0.31*; with P. aeruginosa PA14 [2] (setting [15]) it was 1; with P. aeruginosa PAO1 [3] (setting [15]), 0.5*; with P. mirabilis HI4320 [8] (setting [15]), 0.75. Moreover, the “FICI, catechol” value was 0.31* in the assay with E. coli CFT073 [1] (setting [16]), 1 in the assay with P. aeruginosa PA14 [2] (setting [16]), 0.5* in the assay with P. aeruginosa PAO1 [3] (setting [16]) and 0.75 in the assay with P. mirabilis HI4320 [8] (setting [16]). Also, the “FICI, gallic acid” value came out at 0.75 in the assay on E. coli CFT073 [1] (setting [17]), 0.63 in the assay with P. aeruginosa PA14 [2] (setting [17]), 1 in the assay with P. aeruginosa PAO1 [3] (setting [17]) and 1 in the assay on P. mirabilis HI4320 [8] (setting [17]). Also, the “FIC, catechaldehyde” value worked out at 0.25 in the assay on E. coli CFT073 [1] (setting [18]), 0.5 in the assay with P. aeruginosa PA14 [2] (setting [18]), 0.25 in the assay on P. aeruginosa PAO1 [3] (setting [18]) and 0.25 in the assay on P. mirabilis HI4320 [8] (setting [18]). Also, the “FIC, catechol” value was determined as 0.25 in the assay on E. coli CFT073 [1] (setting [19]), 0.5 in the assay on P. aeruginosa PA14 [2] (setting [19]), 0.25 in the assay on P. aeruginosa PAO1 [3] (setting [19]) and 0.25 with P. mirabilis HI4320 [8] (setting [19]). The “FIC, gallic acid” value was determined as 0.5 in the assay with E. coli CFT073 [1] (setting [20]), 0.13 in the assay on P. aeruginosa PA14 [2] (setting [20]), 0.5 in the assay on P. aeruginosa PAO1 [3] (setting [20]) and 0.5 with P. mirabilis HI4320 [8] (setting [20]). The FICI is reported as 0.75 in the assay with E. coli CFT073 [1] (setting [21]), 0.75 in the assay on P. aeruginosa PA14 [2] (setting [21]), 2 in the assay on P. aeruginosa PAO1 [3] (setting [21]) and 1 with P. mirabilis HI4320 [8] (setting [21]). For the same compound, the FIC of compound in the assay on E. coli CFT073 [1] (setting [22]) amounted to 0.25; with P. aeruginosa PA14 [2] (setting [22]) it was 0.25; in the assay on P. aeruginosa PAO1 [3] (setting [22]), 1; in the assay on P. mirabilis HI4320 [8] (setting [22]), 0.5. Also, the MIC against P. mirabilis HI4320 [4], with P. aeruginosa PA14 [5], against P. aeruginosa PAO1 [6] and with E. coli CFT073 [7] was 5000 µg/mL (≈ 27.4 mM) in each case. For the same compound, the “FICIs of pairs with gallic acid” value in assay [9] is 0.63-1.0.
For gentamicin [reference compound], the results for the Minimum permeabilization concentration in [10], in assay [11] and in assay [12] were 0.013 µg/mL, 1 µg/mL and 1 µg/mL, respectively. Moreover, the “Minimum permeabilization concentration (NPN assay)” value in assay [13] amounted to 0.006 µg/mL.

The values above are taken from US10206906B2, “Synergistic combination of a phenolic-rich maple syrup extract and an antibiotic” (priority 2015, dated 2019).
